Test results from the OPERA property sets (Mansouri et al. 2018).
Peptide text beside a SMILES is read from it.

Row | Compound | logP
1 | CSCS(=O)CC(CO)NC(=O)C=Cc1c(C)[nH]c(=O)[nH]c1=O (stereo unspecified) | -1.71
2 | CCCC(O)C(C(=O)O)c1ccc(-c2ccccc2)cc1 (stereo unspecified) | 3.75
3 | CNC(=O)Oc1cccc(C)c1C | 1.95
4 | CCc1cccc(N2C(=O)CCC2=O)c1 | 1.04
5 | O=Nc1ccc(O)cc1 | 1.29
6 | c1ccc2ncccc2c1 | 2.03
7 | CCN(CC)N=Nc1ccc(C(N)=O)cc1 | 2.26
8 | CCCCCCCCCCCCCC | 7.2
9 | C[C@@H](O)c1ccccc1 | 1.42
10 | c1ccc2c(c1)CCCC2 | 3.49
11 | c1ccc(-c2ccncc2)cc1 | 2.59
12 | Cn1c(N)nc2cc(C#N)ccc21 | 1.11
13 | CCN(CC)C(=O)C1C2CC3C(OC(=O)C31)C2O (stereo unspecified) | 0.15
14 | CC(=O)CCC1CC1 | 1.5
15 | CCCCCCCCOc1ccccc1NC(=O)OCCN1CCCCC1 | 6.36
16 | CC(=O)Nc1ccc(I)cc1 | 2.71
17 | O=NN1CCSCC1 | 0.4
18 | COC(=O)CNC(=O)c1ccc([N+](=O)[O-])cc1 | 0.98
19 | NC(=O)CBr | -0.52
20 | O=C(O)c1cccc([N+](=O)[O-])c1 | 1.83
21 | CCOC(=O)C(SP(=S)(OC)OC)c1ccccc1 (stereo unspecified) | 3.69
22 | CC1CC2OC(=O)C(C)C2C(OC(=O)CC(=O)OC2C3C(CC(C)C4CCC(=O)C42C)OC(=O)C3C)C2(C)C(=O)CCC12 (stereo unspecified) | 0.76
23 | C=C(C)[C@H]1Cc2c(ccc3c2O[C@@H]2COc4cc(OC)c(OC)cc4[C@@H]2C3=O)O1 | 4.1
24 | CCOP(=S)(OCC)SC(CCl)N1C(=O)c2ccccc2C1=O (stereo unspecified) | 4.69

Row | Compound | logP
25 | CCCCCCCCCCNC(=O)c1[nH]nc(C)c1[N+](=O)[O-] | 4.48
26 | COc1c(O)c(OC)c(Cl)c(Cl)c1Cl | 3.74
27 | O=S1(=O)NC(C(F)(F)F)=Nc2cc(Cl)ccc21 | 1.65
28 | CC(=O)CC(C)=O | 0.4
29 | Nc1ncc([N+](=O)[O-])s1 | 0.83
30 | COc1ccc(CC#N)cc1OC | 1.15
31 | CC12CCC3C(CCC4(O)CC(O)CCC34C=O)C1(O)CCC2C1=CC(=O)OC1 (stereo unspecified) | 0.64
32 | CC(=O)N[C@@H](CC(C)C)C(=O)N[C@H](C(N)=O)C(C)C (Ac-Leu-Val-NH2) | 0.26
33 | O=C1C=C(N2CC=CC2)C(=O)c2ccccc21 | 2.85
34 | c1ccc2c(c1)CCCN2 | 2.29
35 | NNC(=O)c1cccc(I)c1 | 1.53
36 | Cc1onc(-c2ccccc2)c1C(=O)NC1C(=O)N2C1SC(C)(C)C2C(=O)O (stereo unspecified) | 2.38
37 | CN(C)CCC(c1ccc(Cl)cc1)c1ccccn1 (stereo unspecified) | 3.38
38 | Cc1cc(N)ccc1Br | 2.53
39 | COC(=O)c1ccco1 | 1
40 | c1ccc2c(c1)oc1ccccc12 | 4.12
41 | c1ccnnc1 | -0.72
42 | O=C(O)c1cccc(C(F)(F)F)c1 | 2.95
43 | CC(=O)OCC(=O)[C@@]12OC(C)(C)O[C@@H]1C[C@H]1[C@@H]3C[C@H](F)C4=CC(=O)C=C[C@]4(C)[C@@]3(F)[C@@H](O)C[C@@]12C | 3.19
44 | CCNc1nc(NC(C)C)nc(SC)n1 | 2.98
45 | CNc1nc(C)nc2c1ncn2[C@@H]1O[C@H](CO)C[C@@H]1F | 0.64
46 | CCCCOc1cccnn1 | 1.8
47 | CC(C)CC(N)C(=O)OCn1ncc2c(=O)[nH]cnc21 (stereo unspecified) | 0.19
48 | O=S(=O)(O)c1ccc(O)c2ccccc12 | -0.44

Row | Compound | logP
49 | NN1CCCCC1 | -0.28
50 | OCCCCCc1ccncc1 | 1.39
51 | O=C(O)Cc1ccccc1F | 1.5
52 | NC(=O)c1ccncc1 | -0.28
53 | O=Cc1ccsc1 | 1.01
54 | NC(CC(=O)O)c1ccccc1 (stereo unspecified) | -1.4
55 | OC(CNCC(O)COc1ccccc1)COc1ccccc1 (stereo unspecified) | 2.52
56 | C=CCC1(CC(=C)Br)C(=O)NC(=O)N(C)C1=O (stereo unspecified) | 1.78
57 | C=C(C)CC1(CC)C(=O)NC(=S)NC1=O | 2.19
58 | O=Cc1ccc2c(c1)OCO2 | 1.05
59 | CN(C)C(=O)Nc1cccc(Cl)c1 | 2
60 | O=C(O)c1cc2ccccc2o1 | 2.41
61 | OCc1ccncc1 | 0.06
62 | COc1ccc(NC(=O)NN=Cc2ccc[nH]2)cc1 | 2.67
63 | CCCNc1nc(NCC)nc(SC(F)F)n1 | 3.8
64 | CC(=O)Nc1cccc(C(C)=O)c1 | 1.06
65 | CCOC(=O)C(=Cc1cccc(F)c1)C(C)=O | 2.46
66 | Cc1ccnc2c(O)ccc(O)c12 | 1.59
67 | O=P1(N(CCCl)CCCl)NCCCO1 (stereo unspecified) | 0.63
68 | CON(C)C(=O)Nc1ccc(F)cc1 | 1.46
69 | N#CCCl | 0.45
70 | CC(C)(C)N | 0.4
71 | CCC(=O)OC1(C(=O)CCl)C(C)CC2C3CCC4=CC(=O)C=CC4(C)C3(F)C(=O)CC21C (stereo unspecified) | 3.46
72 | CNC(=O)COc1ccccc1 | 1.02

Row | Compound | logP
73 | O=C(CN1CCCCC1)Nc1ccc(I)cc1 | 3.9
74 | CCC(=O)c1ccncc1 | 0.77
75 | CN1CCN(CCCN2c3ccccc3Sc3ccc(Cl)cc32)CC1 | 4.88
76 | FC(F)(F)c1nc2c(Cl)c(Cl)ccc2[nH]1 | 3.49
77 | Clc1ccc(-c2cc(Cl)c(Cl)cc2Cl)cc1 | 6.67
78 | CN=C(O)Oc1cccc(C)c1 | 1.7
79 | CC1OC(OC2CCC3(CO)C4CCC5(C)C(C6=CC(=O)OC6)CCC5(O)C4CCC3(O)C2)C(O)C(O)C1O (stereo unspecified) | -0.62
80 | CNC(C)=O | -1.05
81 | CON=C(C(=O)NC1C(=O)N2C(C(=O)OCOC(=O)C(C)(C)C)=C(CSc3nnnn3C)CSC12)c1csc(N)n1 (stereo unspecified) | 1.74
82 | Cc1ccc(N)nc1 | 1.02
83 | Cc1cccc(Cl)c1Nc1ccccc1CC(=O)O | 4.37
84 | Nc1cccc([N+](=O)[O-])c1N | 1.27
85 | CCOC(=O)n1cc(F)c(=O)[nH]c1=O | -0.17
86 | CCc1cc(OC)c(CC(C)N)cc1OC (stereo unspecified) | 2.81
87 | Oc1ccc(Nc2ccccc2)cc1 | 2.82
88 | O=C1OC2(CCCC2)c2ccccc21 | 2.56
89 | CC(=O)OCCBr | 1.11
90 | c1ccc2c(c1)[nH]c1ccccc12 | 3.72
91 | CCOC(=O)NC(O)C(Cl)(Cl)Cl (stereo unspecified) | 1.84
92 | OCC(F)(F)C(F)(F)F | 1.23
93 | C=C(C)C(=O)OC(C)(C)C | 2.54
94 | Nc1nc(N)nc(-c2ccc([N+](=O)[O-])cc2)n1 | 1.6
95 | OCc1cccc(C(F)(F)F)c1 | 2.24
96 | c1ccc2c(c1)Oc1ccccc1S2 | 4.54

Row | Compound | logP
97 | O=C1CN=C(c2ccc(F)cc2)c2cc(Cl)ccc2N1 | 2.9
98 | Cc1n[nH]c(C(=O)N2CCCCCC2)c1[N+](=O)[O-] | 1.15
99 | CNC(=O)Oc1ccc(OC)cc1 | 1.2
100 | N#CCc1ccco1 | 0.85
101 | Nc1ccn(C2CC(O)C(CO)O2)c(=O)n1 (stereo unspecified) | -1.77
102 | O=C(CCNNC(=O)c1ccncc1)NCc1ccccc1 | 0.87
103 | ClC(Cl)(Cl)c1ccc(C(Cl)(Cl)Cl)cc1 | 4.62
104 | Cc1nc(-c2ccccc2)c2ccccc2n1 | 3.1
105 | CCN(N=O)C(=O)N(C)C | 0.71
106 | CCCc1cccc(OCC(=O)O)c1 | 2.71
107 | CN1C(=O)CN=C(c2ccccc2F)c2cc(Cl)ccc21 | 2.75
108 | CN(C)C(N(C)C)=S(I)c1cccc(C#N)c1 (stereo unspecified) | -1.1
109 | CCOCOCC | 0.84
110 | Oc1nc2ccccc2s1 | 1.76
111 | CC(C)(S)[C@@H](N)C(=O)O | -1.78
112 | C1=COCCC1 | 0.69
113 | O=C(O)Cc1ccc2ccccc2c1 | 2.81
114 | CN(C)c1nc(Cl)nc(N(C)C)n1 | 2.31
115 | C[N+](C)(C)Cc1ccccc1.[Cl-] | -2.17
116 | CNC(=O)ON=C(C)SC | 0.6
117 | CCCCNC(=O)NS(=O)(=O)c1ccc(Cl)cc1 | 2.81
118 | COP(=O)(OC)OC=C(Cl)Cl | 1.43
119 | O=C(O)COc1ccc(F)cc1 | 1.64
120 | COc1c(C)cccc1C | 3.02

Row | Compound | logP
121 | CCn1cc(C(=O)O)c(=O)c2cnc(N3CCNCC3)nc21 | -2.15
122 | COc1cc(Cl)cc(Cl)c1 | 3.8
123 | COc1ccccc1C=C(C(C)=O)C(C)=O | 1.73
124 | O=c1nccc[nH]1 | -1.62
125 | Cc1cccc(OC(=O)c2ccc(N)cc2O)c1 | 3.64
126 | CCCN(CCC)c1c([N+](=O)[O-])cc(C(F)(F)F)cc1[N+](=O)[O-] | 5.34
127 | O=C1CCCCCCN1 | 0.24
128 | NC(Cc1ccc([N+](=O)[O-])cc1)C(=O)O (stereo unspecified) | -1.25
129 | OCCOc1c(Br)cc(Br)cc1Br | 3.42
130 | C[C@H](N)[C@H](O)c1cccc(O)c1 | -0.27
131 | ON=Cc1ccccc1 | 1.85
132 | NC(N)=O | -2.11
133 | Nc1ccc(Sc2ccc(N)cc2)cc1 | 2.18
134 | CC(C)NC(C)(C)C | 1.56
135 | CSc1ccc(COC(=O)N(C)C)cc1 | 2.86
136 | NS(=O)(=O)c1nc2ccccc2s1 | 1.33
137 | NC(=O)c1ccoc1 | 0.09
138 | C=C[C@@]12COC(=O)C(=C)[C@@H]1[C@H]1OC(=O)C(=C)[C@@H]1[C@@H](O)C2 | 0.31
139 | CCCCCCCOC(N)=O | 2.36
140 | Cn1cc[nH]c1=S | -0.34
141 | CCOC(=O)C=Cc1ccc(O)c(O)c1 | 2.56
142 | Cn1ccc(=O)n(C)c1=O | -0.54
143 | c1ccc(-c2ccc(NCCN3CCOCC3)nn2)cc1 | 1.85
144 | CCCNC(C)CC (stereo unspecified) | 1.91

Row | Compound | logP
145 | O=C1CCCCCCCCCCC1 | 4.1
146 | NC(=O)Nc1nc(-c2ccccc2)no1 | 1.76
147 | Cc1ccc(OC(=O)c2ccc(N)cc2O)cc1 | 3.38
148 | C#CC1(O)CCCCC1 | 1.73
149 | CCCCN(C)C | 1.7
150 | CN(C)C(=O)OCc1ccc(F)cc1 | 2.3
151 | Cc1cc(O)c(C(C)C)cc1Cl | 3.92
152 | CC1=C(N2CC2)C(=O)C(CCO)=C(N2CC2)C1=O | 0.49
153 | COc1ccc(S(N)(=O)=O)cc1 | 0.47
154 | CON(C)C(=O)Nc1ccc(Cl)cc1 | 2.3
155 | O=C(CF)NC(CO)C(O)c1ccc([N+](=O)[O-])cc1 (stereo unspecified) | 0.15
156 | CC=CC(C)=O | 0.52
157 | CCOC(=O)C(=Cc1cccc([N+](=O)[O-])c1)C(=O)OCC | 2.71
158 | COP1(=S)OCc2ccccc2O1 (stereo unspecified) | 2.67
159 | COC1=C(OC)C(=O)C(C)=C(C)C1=O | 1.26
160 | CC(=O)c1csc2ccccc12 | 2.78
161 | Cc1cc2ccccc2[nH]1 | 2.53
162 | CCC(=O)c1ccccc1O | 2.54
163 | CCOC(N)=O | -0.15
164 | NCCc1cccnc1 | -0.11
165 | COC(=O)CC#N | -0.47
166 | CC(=O)c1ccccc1O | 1.92
